Data set [1] in a line: Plasma protein binding, equilibrium dialysis, mouse plasma. The format is in vitro ADME. The note with it: female, CD1, read-out: fu (unbound fraction). As to the method:
(§1) which gave the best fit to the data was then recorded as the logP. Using the logP and an experimentally determined pKa (see above), the software generated a lipophilicity plot showing changes in the logD with increasing pH and from this plot a logD7.3 and logD5.6 values were recorded.
(§2) Plasma Protein Binding Determination
(§3) A 96-well equilibrium dialysis apparatus was used to determine the free fraction in plasma for DDD806905 (HT Dialysis LLC, Gales Ferry, CT). Membranes (12-14 kDA cut-off) were conditioned in deionised water for 60 minutes, followed by conditioning in 80:20 deionised water:ethanol for 20 minutes, and then rinsed in isotonic buffer before use. Female CD1 mouse plasma or human plasma was removed from the freezer and allowed to thaw on the day of experiment. Thawed plasma was then centrifuged (Allegra X12-R, Beckman Coulter, USA), spiked with test compound (final concentration 10 μg/ml), and 150 μL aliquots (n=6 replicate determinations) loaded into the 96-well equilibrium dialysis plate. […] All samples were analysed by UPLC-MS/MS on a Quattro Premier XE Mass Spectrometer (Waters Corporation, USA).
(§4) The unbound fraction (fu) was determined as the ratio of the peak area in buffer to that in plasma. […]
On the technique in general: Equilibrium dialysis compares concentrations on both sides of a semipermeable membrane.

A short description of data set [2]: Plasma protein binding, equilibrium dialysis, human plasma. It counts as in vitro ADME. The following applies: read-out: fu (unbound fraction). As to the method:
as §1, §2, §3, §4

Data set [3] in a line: LogD measurement (Sirius T3, potentiometric). The format is physicochemical. The note with it: octanol/water. As to the method: calculated, both in terms of pEC50 values. MIC (minimum inhibitory concentration) values are defined as the lowest concentration tested at which maximal inhibition is reached.
THP-1 cells were differentiated in 96-well plates with PMA as described above. Following differentiation the cells were treated for 30 min with dose-response curves of test compounds in presence of 100 nM LysoTracker Red DND-99 (Thermo Fisher) and 5 µg/ml Hoechst 33342. Next cells were washed 3 times with Hanks Buffered Saline Solution (Gibco) and imaged on a Perkin Elmer Operetta system. An image analysis algorithm to measure mean Lysotracker Red DND-99 intensity per cell was developed in Columbus. […]
To measure the pKa of DDD806905, a fast UV-metric method was performed using a Sirius T3 instrument (Sirius Analytical, U.K.). The calculation of the pKa was determined using the Sirius T3 refine software (Sirius Analytical, U.K.). In brief, the UV-metric pKa method is based on measuring pH during an acid-base titration and monitoring UV absorbance shift. […] The appearance of precipitate was monitored throughout the experiment by a turbidity sensing device. […] The pKas of DDD806905 was determined at the pH where there was maximal change in UV absorbance with respect to pH. […]
LogD7.4 values were quantified using a Sirius T3 instrument (Sirius Analytical, U.K.). […]
which gave the best fit to the data was then recorded as the logP. […]

Molecules are shown by their SMILES. Read-outs that look alike come from different tables or passages of the source.

For orientation: fraction unbound means the share of the substance not bound to proteins or other matrix. Consider `Cl.Cl.O=c1nc(NCCCNCc2cc3c(Cl)cc(Cl)cc3[nH]2)[nH]c2ccccc12` [DDD806905, 2-((3-(((4,6-dichloro-1H-indol-2-yl)methyl)amino)propyl)amino)quinazolin-4(1H)-one dihydrochloride], for which the fraction unbound at 5 h, 10 μg/ml in data set [1] was 0.006; in data set [2], 0.007. The logD in data set [3] (pH 5.6, read-out: log D5.6) stood at 0.3; in data set [3] (pH 7.3, read-out: log D7.3), 2.6.

(Values after article PMC5663395, “Chemical Validation of Methionyl-tRNA Synthetase as a Druggable Target in Leishmania donovani” (ACS Infectious Diseases, 2017).)
